# Measurements as given in US20250214966A1, “Crystalline Salt Form Of A SHP2 Inhibitor” (Array BioPharma Inc., priority 2022, published 2025).
# Where a name gives a salt, the structure may show the parent alone. Read-outs that look alike come from different tables or passages of the source.
# Legend:
# Assay type in all cases: physicochemical
# [1] = Solubility in buffers, HPLC of mother liquors (Tables 12 and 13); conditions: for solubility at 25 h: 25 °C, thermodynamic from solid, read-out: Solubility Concentration
# Description: Upon addition of the buffer solutions, the samples were vortexed. The samples were rotated at 40° C. for 8 hours, 15° C. for 5 hours, and 25° C. for 12 hours in an Envirogenie thermomixer. After the thermomixing cycle, the slurries were isolated by centrifugation filtration and the isolated mother liquors were analyzed by HPLC.
# (§1) HPLC method (Tables 12 and 13): An Agilent 1290 UPLC instrument was used with a Waters XSelect HSS T3 Column (100 angstrom, 4.6×150 mm, 5 μm). The column temperature was set to 20° C., the UV wavelength set to 254 nm, the injection volume was 10 μL, with a flow rate of 1.0 mL/min. 10 mM Ammonium acetate adjusted to pH 4.8 was used as a mobile phase A, and acetonitrile was used as mobile phase B. The gradient method was set up to achieve 15% mobile phase B at 0 minutes, 95% mobile phase B at 17 minutes—held until 22 minutes, 15% mobile phase B at 22.1 minutes—held until 28 minutes.
# [2] = Thermal analysis TGA/DSC (Tables 12 and 13); conditions: 10° C./minute heating rate
# Description: Thermogravimetric Analysis (“TGA”) (Table 12): Thermogravimetric analysis was conducted using a Discovery TGA (TA instruments) thermogravimetric analyzer. Samples of approximately 10 mg were weighed into aluminum pans and heated from ambient to 300° C. at 10° C./minute heating rate under nitrogen purge (10 mL/min for both sample chamber and balance).
# Differential Scanning Calorimetry (“DSC”) (Table 12): DSC measurements were performed with Discovery DSC (TA instruments) equipped with a refrigerated cooling accessory. All the experiments were performed in standard/Tzero aluminum pans. The cell constant was determined using indium and temperature calibration was performed using indium and tin as standards. All the measurements were done under continuous dry nitrogen purge (50 mL/min). Approximately 1-5 mg of solid sample was weighed into a Tzero aluminum pan, sealed non-hermetically and heated from 0° C. to 250° C. at 10° C./min heating rate. The experimental data were analyzed using commercially available software (TA Universal Analysis 2000/Trios software, TA Instruments).
# TGA/DSC (Table 13): A Simultaneous DSC/TGA instrument was used for the thermal analysis. Approximately 3.2 mg of the API was placed in an aluminum Tzero DSC pan was loaded into the instrument via autosampler. The sample was equilibrated to 35° C. in the instrument prior to analysis and was ramped to 400° C. at a ramp rate of 10° C./min. Dry nitrogen gas from the in-house supply was used.
# [3] = Chemical stability (HPLC) after storage at 70° C.
# Description: Sample Preparation (Table 12): Crystalline (S)-1′-(6-((2-amino-3-chloropyridin-4-yl)thio)-1,2,4-triazin-3-yl)-1,3-dihydrospiro[indene-2,4′-piperidin]-1-amine free base hemihydrate (Form 1)—Control: Compound (15.46 mg) was weighed into a 50 mL amber volumetric flask. Methanol (approximately 35 mL) was added to the flask, sonicated 4 minutes with intermittent swirling, equilibrated to room temperature, brought to volume with methanol and mixed well with repeated inversions of the flask. Crystalline (S)-1′-(6-((2-amino-3-chloropyridin-4-yl)thio)-1,2,4-triazin-3-yl)-1,3-dihydrospiro[indene-2,4′-piperidin]-1-amine free base hemihydrate (Form 1)—70° C./5% relative humidity (“RH”)/1 week: Compound (14.83 mg) was weighed into a 50 mL amber volumetric flask. Methanol (approximately 35 mL) was added to the flask, sonicated 4 minutes with intermittent swirling, equilibrated to room temperature, brought to volume with methanol and mixed well with repeated inversions of the flask. Crystalline (S)-1′-(6-((2-amino-3-chloropyridin-4-yl)thio)-1,2,4-triazin-3-yl)-1,3-dihydrospiro[indene-2,4′-piperidin]-1-amine free base hemihydrate (Form 1)—70° C./75% RH/1 week: Compound (14.99 mg) was weighed into a 50 mL amber volumetric flask. Methanol (approximately 35 mL) was added to the flask, sonicated 4 minutes with intermittent swirling, equilibrated to room temperature, brought to volume with methanol and mixed well with repeated inversions to the flask.
# as §1, with “Chemical stability (HPLC) (Table 12): A Waters Acquity H-Class” for “HPLC method (Tables 12 and 13): An Agilent 1290 UPLC”, “ammonium” for “Ammonium”, “phase.” for “phase B at 22.1 minutes—held until 28 minutes.”
# 70° C./75% RH Sample: about 20 mg of crystalline anhydrous (S)-1′-(6-((2-amino-3-chloropyridin-4-yl)thio)-1,2,4-triazin-3-yl)-1,3-dihydrospiro[indene-2,4′-piperidin]-1-amine mono succinate salt Form 1 was placed in an open amber vial in the 70° C./75% RH chamber 70° C./5% RH Sample: about 20 mg crystalline anhydrous (S)-1′-(6-((2-amino-3-chloropyridin-4-yl)thio)-1,2,4-triazin-3-yl)-1,3-dihydrospiro[indene-2,4′-piperidin]-1-amine mono succinate salt Form 1 was placed in a closed amber vial with the cap taped in a 70° C. chamber with uncontrolled humidity […]
smiles,measurement,setting,value
"Nc1nccc(Sc2cnc(N3CCC4(CC3)Cc3ccccc3[C@H]4N)nn2)c1Cl.Nc1nccc(Sc2cnc(N3CCC4(CC3)Cc3ccccc3[C@H]4N)nn2)c1Cl.O [Example 2, (S)-1′-(6-((2-amino-3-chloropyridin-4-yl)thio)-1,2,4-triazin-3-yl)-1,3-dihydrospiro[indene-2,4′-piperidin]-1-amine Free Base Hemihydrate (Form 1)]",Solubility Concentration,"[1]; Water, Final pH 9.19, Final XRD Additional peak at 8°",0.24 µg/mL
same,Solubility Concentration,"[1]; pH 3, Final pH 4.51, Final XRD Freebase Form 1",2044.85 µg/mL
same,Solubility Concentration,"[1]; pH 4, Final pH 5.12, Final XRD Freebase Form 1",301.79 µg/mL
same,Solubility Concentration,"[1]; pH 5, Final pH 6.06, Final XRD Freebase Form 1",58.53 µg/mL
same,Solubility Concentration,"[1]; pH 6, Final pH 6.95, Final XRD Freebase Form 1",32.25 µg/mL
same,Solubility Concentration,"[1]; pH 7, Final pH 8.19, Final XRD Freebase Form 1",10.05 µg/mL
same,Solubility Concentration,"[1]; pH 8, Final pH 9.13, Final XRD Insufficient solids",0.56 µg/mL
same,Solubility Concentration,"[1]; pH 9, Final pH 10.2, Final XRD Insufficient solids",0.26 µg/mL
same,Solubility Concentration,"[1]; pH 10, Final pH 3.94, Final XRD Insufficient solids",0.45 µg/mL
same,Decomposition Onset (° C.),[2],~240 °C
same,Dehyradtion Onset (° C.),[2],~72 °C
same,"Chemical Stability (70° C./5% RH), decrease in purity","[3]; 70° C./5% RH, HPLC",0.25% decrease in purity
same,"Chemical Stability (70° C./75% RH), decrease in purity","[3]; 70° C./75% RH, HPLC",0.09% decrease in purity
"Nc1nccc(Sc2cnc(N3CCC4(CC3)Cc3ccccc3[C@H]4N)nn2)c1Cl [Example 3, (S)-1′-(6-((2-amino-3-chloropyridin-4-yl)thio)-1,2,4-triazin-3-yl)-1,3-dihydrospiro[indene-2,4′-piperidin]-1-amine Mono Succinate Salt Form 1]",solubility at 25 h,"[1]; Water, Final pH 5.01, Final XRD Succinate Form 1",8180 µg/mL
same,solubility at 25 h,"[1]; pH 3 buffer, aqueous buffer, pH 3, Final pH 4.5, Final XRD Succinate Form 1",4220 µg/mL
same,solubility at 25 h,"[1]; pH 4 acetate buffer, aqueous buffer, pH 4, Final pH 4.16, Final XRD Insufficient solids",6400 µg/mL
same,solubility at 25 h,"[1]; pH 5 buffer, aqueous buffer, pH 5, Final pH 5.08, Final XRD Succinate Form 1",4440 µg/mL
same,solubility at 25 h,"[1]; pH 6 phosphate buffer, aqueous buffer, pH 6, Final pH 5.37, Final XRD Freebase Form 1",597 µg/mL
same,solubility at 25 h,"[1]; pH 7 buffer, aqueous buffer, pH 7, Final pH 6.81, Final XRD Insufficient solids",17.1 µg/mL
same,solubility at 25 h,"[1]; pH 8 buffer, aqueous buffer, pH 8, Final pH 7.78, Final XRD Freebase Form 1",2.66 µg/mL
same,solubility at 25 h,"[1]; pH 9 buffer, aqueous buffer, pH 9, Final pH 9.01, Final XRD Freebase Form 1",0.18 µg/mL
same,solubility at 25 h,"[1]; pH 10 buffer, aqueous buffer, pH 10, Final pH 9.82, Final XRD Freebase Form 1",0.17 µg/mL
same,Decomposition Onset (° C.),[2],~180 °C
same,"Chemical Stability (70° C./5% RH), decrease in purity",[3],0.13% decrease in purity
same,"Chemical Stability (70° C./75% RH), decrease in purity",[3],0.19% decrease in purity
